Data as given in patent US20120119081A1, “INSECT-BASED MODEL FOR PHARMACO-KINETIC STUDIES” (priority 2009, published 2012).

What was measured:
[1] = Locust hemolymph kinetics after injection into the hemolymph (LCMS)
Experimental: The insects may be obtained from local suppliers or bred in house. The grasshoppers were reared under crowded conditions at 28° C. and a 12:12 dark:light photocycle and fed fresh grass and bran. Before experiments the grasshoppers were fed ecologically cultivated wheat for two weeks. Animals used are adult males (in some experiments females) between two to four weeks after adult emergence. Test compounds are administrated into the hemolymph by use of a Hamilton syringe and inserting the needle between two abdominal terga or administered intraintestinal by use of a catheter or a steel probe. At various time points after administration hemolymph samples are taken for quantitative determination of drug concentration in the hemolymph. The samples are snap-frozen and stored until analyses. Drug concentration is analysed by HPLC, LC/MSMS or other methods. In studies of drug retention various organs e.g. heart, fat bodies and brain are dissected at various times after drug administration. The tissues are washed, snap-frozen and stored until analyses. At analyses the tissues are homogenized/vortexed/sonicated and centrifuged. The drug concentration in the tissues is determined as above.
(§1) 40 ul of an approximately 5 mg/ml solution of quinidine was injected into the hemolymph of Locusts (Locusta migratoria). The test compound was administered by using a Hamilton syringe. At 5, 15, 45, 120, and 360 minutes after administration (10 ul) hemolymph was collected from each locust with a calibrated capillary tube by puncturing the ventral membrane between the head and the thorax and immediately blown into a tube containing 40 ul aqua dest and 100 ul of acetonitrile. Each sample was centrifuged for 5 minutes (10 000 g at 4° C.) and 100 ul of the supernatants were transferred to new test tubes for LCMS analysis.
as §1, with “The” for “40 ul of an approximately 5 mg/ml solution of quinidine was injected into the hemolymph of Locusts (Locusta migratoria). The”, “000g” for “000 g”
as §1, with “caffeine” for “quinidine”, “000g” for “000 g”
as §1, with “The” for “40 ul of an approximately 5 mg/ml solution of quinidine was injected into the hemolymph of Locusts (Locusta migratoria). The”, “000g” for “000 g”
Mianserin was injected into the hemolymph of Locusts (Locusta migratoria). The administered volume was 40 ul (administered by using a Hamilton syringe) at a concentration of 8.8 mg/ml. At 5, 15 and 45 minutes after administration (2×20 ul) hemolymph was collected from the locusts with a calibrated capillary tube by puncturing the ventral membrane between the head and the thorax and immediately blown into a tube containing 60 ul aqua dest and 200 ul of acetonitrile.

[2] = cited from earlier work; for Volume of distribution (in words): human / vertebrate, relative statement
[3] = cited from earlier work
[4] = Locusta migratoria, in vivo, 0.2 mg per locust (approximately)
[5] = Locusta migratoria, in vivo, 0.4 mg per locust (approximately)
[6] = locust, after intrahemolymphic administration, comparison between test compounds

SMILES | concentration at 5 min [1, 5] [ng/mL] | concentration at 15 min [1, 5] [ng/mL] | concentration at 45 min [1, 5] [ng/mL] | Hemolymph elimination / clearance (in words) [1, 6] | Volume of distribution (in words) [2] | other results
Cn1c(=O)c2c(ncn2C)n(C)c1=O [caffeine] | 29000 | 24000 | 23000 | non dose dependent hemolymph clearance | much lower volume of distribution compared to propranolol | concentration at 5 min [1, 4]: 9280 ng/mL; concentration at 15 min [1, 4]: 9010 ng/mL; concentration at 45 min [1, 4]: 8780 ng/mL; concentration at 120 min [1, 4]: 6820 ng/mL; concentration at 360 min [1, 4]: 5500 ng/mL
CC(C)NCC(O)COc1cccc2ccccc12 (stereo not drawn) [propranolol] |  |  |  |  | much larger volume of distribution | Half life (in words) ([2]; human, compared to atenolol): much shorter half life
O=C1CC2(CCCC2)CC(=O)N1CCCCN1CCN(c2ncccn2)CC1 [buspirone] | 10700 | 6500 | 3800 | increased elimination similar to haloperidol |  | 
CN(C)C(=O)C(CCN1CCC(O)(c2ccc(Cl)cc2)CC1)(c1ccccc1)c1ccccc1 [loperamide] | 5600 | 3000 | 1700 |  |  | Solubility (in words) [3]: less soluble
O=c1n(CCCN2CCN(c3cccc(Cl)c3)CC2)nc2ccccn12 [trazodone] |  |  |  |  |  | Hemolymph elimination / clearance (in words) ([1]; in vivo): stable for 15 minutes
